Results: ChEMBL document CHEMBL4804284
Calls of active or inactive are those of the source. No cut-off for these calls is given here.

Key:
[1] = molecular target: Inhibitor of nuclear factor kappa-B kinase subunit epsilon (Homo sapiens) (UniProt Q14164); assay: Inhibition of DNA-tagged human IKK-epsilon assessed as percent of control at 50000 nM by qPCR analysis relative to control; design: scale not given: the % may be the effect or the level left
[2] = molecular target: Vascular endothelial growth factor receptor 3 (Homo sapiens) (UniProt P35916); assay: Inhibition of DNA-tagged human FLT4 assessed as percent of control at 50000 nM by qPCR analysis relative to control; design: scale not given: the % may be the effect or the level left
[3] = molecular target: Cyclin-dependent kinase 17 (Homo sapiens) (UniProt Q00537); assay: Inhibition of DNA-tagged human PCTK2 assessed as percent of control at 50000 nM by qPCR analysis relative to control; design: scale not given: the % may be the effect or the level left
HEL = assay: Cytotoxicity against human HEL cells at 0.1-100 uM assessed as decrease in cell viability relative to control; assay type: functional, cell-based
[4] = molecular target: Tyrosine-protein kinase JAK2 (Homo sapiens) (UniProt O60674); assay: Inhibition of DNA-tagged human JAK2 JH1 catalytic domain assessed as percent of control at 50000 nM by qPCR analysis relative to control; design: scale not given: the % may be the effect or the level left
[5] = molecular target: Serine/threonine-protein kinase D3 (Homo sapiens) (UniProt O94806); assay: Inhibition of DNA-tagged human PRKD3 assessed as percent of control at 50000 nM by qPCR analysis relative to control; design: scale not given: the % may be the effect or the level left
OCI-AML-3 = assay: Cytotoxicity against human OCI-AML-3 cells at 0.1-100 uM assessed as decrease in cell viability relative to control; assay type: functional, cell-based
MV4-11 = assay: Cytotoxicity against human MV4-11 cells expressing FLT3-ITD at 0.1-100 uM assessed as decrease in cell viability relative to control; assay type: functional, cell-based
[6] = molecular target: Ribosomal protein S6 kinase alpha-2 (Homo sapiens) (UniProt Q15349); assay: Inhibition of DNA-tagged human C-terminal RSK3 kinase domain 2 assessed as percent of control at 50000 nM by qPCR analysis relative to control; design: scale not given: the % may be the effect or the level left
[7] = molecular target: Phosphatidylinositol 4-phosphate 5-kinase type-1 gamma (Homo sapiens) (UniProt O60331); assay: Inhibition of DNA-tagged human PIP5K1C assessed as percent of control at 50000 nM by qPCR analysis relative to control; design: scale not given: the % may be the effect or the level left
[8] = tested on: Tyrosine-protein kinase ABL1 (Homo sapiens), P00519 [F317I]; assay: Inhibition of DNA-tagged non-phosphorylated human ABL1 F317I mutant assessed as percent of control at 50000 nM by qPCR analysis relative to control; design: scale not given: the % may be the effect or the level left
[9] = molecular target: STE20-like serine/threonine-protein kinase (Homo sapiens) (UniProt Q9H2G2); assay: Inhibition of DNA-tagged human SLK assessed as percent of control at 50000 nM by qPCR analysis relative to control; design: scale not given: the % may be the effect or the level left
[10] = molecular target: Ephrin type-B receptor 4 (Homo sapiens) (UniProt P54760); assay: Inhibition of DNA-tagged human EPHB4 assessed as percent of control at 50000 nM by qPCR analysis relative to control; design: scale not given: the % may be the effect or the level left
[11] = molecular target: Dual specificity mitogen-activated protein kinase kinase 3 (Homo sapiens) (UniProt P46734); assay: Inhibition of DNA-tagged human MEK3 assessed as percent of control at 50000 nM by qPCR analysis relative to control; design: scale not given: the % may be the effect or the level left
[12] = tested on: Receptor-type tyrosine-protein kinase FLT3 (Homo sapiens), P36888 [R834Q]; assay: Inhibition of DNA-tagged human FLT3 R834Q mutant assessed as percent of control at 50000 nM by qPCR analysis relative to control; design: scale not given: the % may be the effect or the level left
[13] = molecular target: NT-3 growth factor receptor (Homo sapiens) (UniProt Q16288); assay: Inhibition of DNA-tagged human TRKC assessed as percent of control at 50000 nM by qPCR analysis relative to control; design: scale not given: the % may be the effect or the level left
[14] = molecular target: Atypical kinase COQ8A, mitochondrial (Homo sapiens) (UniProt Q8NI60); assay: Inhibition of DNA-tagged human ADCK3 assessed as percent of control at 50000 nM by qPCR analysis relative to control; design: scale not given: the % may be the effect or the level left
[15] = molecular target: Phosphatidylinositol 4,5-bisphosphate 3-kinase catalytic subunit gamma isoform (Homo sapiens) (UniProt P48736); assay: Inhibition of DNA-tagged human PIK3CG assessed as percent of control at 50000 nM by qPCR analysis relative to control; design: scale not given: the % may be the effect or the level left
[16] = molecular target: Tyrosine-protein kinase CSK (Homo sapiens) (UniProt P41240); assay: Inhibition of DNA-tagged human CSK assessed as percent of control at 50000 nM by qPCR analysis relative to control; design: scale not given: the % may be the effect or the level left
[17] = molecular target: Rhodopsin kinase GRK1 (Homo sapiens) (UniProt Q15835); assay: Inhibition of DNA-tagged human GRK1 assessed as percent of control at 50000 nM by qPCR analysis relative to control; design: scale not given: the % may be the effect or the level left
[18] = tested on: Leucine-rich repeat serine/threonine-protein kinase 2 (Homo sapiens), Q5S007 [G2019S]; assay: Inhibition of DNA-tagged human LRRK2 G2019S mutant assessed as percent of control at 50000 nM by qPCR analysis relative to control; design: scale not given: the % may be the effect or the level left
[19] = tested on: Epidermal growth factor receptor (Homo sapiens), P00533 [UNDEFINED MUTATION]; assay: Inhibition of DNA-tagged human EGFR E746-A750del mutant assessed as percent of control at 50000 nM by qPCR analysis relative to control; design: scale not given: the % may be the effect or the level left
[20] = molecular target: 5'-AMP-activated protein kinase catalytic subunit alpha-2 (Homo sapiens) (UniProt P54646); assay: Inhibition of DNA-tagged human AMPK-alpha2 assessed as percent of control at 50000 nM by qPCR analysis relative to control; design: scale not given: the % may be the effect or the level left
[21] = molecular target: Serine/threonine-protein kinase MRCK gamma (Homo sapiens) (UniProt Q6DT37); assay: Inhibition of DNA-tagged human DMPK2 assessed as percent of control at 50000 nM by qPCR analysis relative to control; design: scale not given: the % may be the effect or the level left
[22] = tested on: Hepatocyte growth factor receptor (Homo sapiens), P08581 [M1250T]; assay: Inhibition of DNA-tagged human MET M1250T mutant assessed as percent of control at 50000 nM by qPCR analysis relative to control; design: scale not given: the % may be the effect or the level left
[23] = molecular target: Tyrosine-protein kinase receptor Tie-1 (Homo sapiens) (UniProt P35590); assay: Inhibition of DNA-tagged human TIE1 assessed as percent of control at 50000 nM by qPCR analysis relative to control; design: scale not given: the % may be the effect or the level left
[24] = tested on: Epidermal growth factor receptor (Homo sapiens), P00533 [UNDEFINED MUTATION]; assay: Inhibition of DNA-tagged human EGFR L747-T751del/Sins double mutant assessed as percent of control at 50000 nM by qPCR analysis relative to control; design: scale not given: the % may be the effect or the level left
[25] = molecular target: Serine/threonine-protein kinase Nek4 (Homo sapiens) (UniProt P51957); assay: Inhibition of DNA-tagged human NEK4 assessed as percent of control at 50000 nM by qPCR analysis relative to control; design: scale not given: the % may be the effect or the level left
[26] = molecular target: Peripheral plasma membrane protein CASK (Homo sapiens) (UniProt O14936); assay: Inhibition of DNA-tagged human CASK assessed as percent of control at 50000 nM by qPCR analysis relative to control; design: scale not given: the % may be the effect or the level left
[27] = tested on: eIF-2-alpha kinase GCN2 (Homo sapiens), Q9P2K8 [S808G]; assay: Inhibition of DNA-tagged human GCN2 S808G mutant kinase domain 2 assessed as percent of control at 50000 nM by qPCR analysis relative to control; design: scale not given: the % may be the effect or the level left

Epidermal growth factor receptor (Homo sapiens), P00533 [UNDEFINED MUTATION], sequence (P00533 whole entry, looked up, stated change not applied): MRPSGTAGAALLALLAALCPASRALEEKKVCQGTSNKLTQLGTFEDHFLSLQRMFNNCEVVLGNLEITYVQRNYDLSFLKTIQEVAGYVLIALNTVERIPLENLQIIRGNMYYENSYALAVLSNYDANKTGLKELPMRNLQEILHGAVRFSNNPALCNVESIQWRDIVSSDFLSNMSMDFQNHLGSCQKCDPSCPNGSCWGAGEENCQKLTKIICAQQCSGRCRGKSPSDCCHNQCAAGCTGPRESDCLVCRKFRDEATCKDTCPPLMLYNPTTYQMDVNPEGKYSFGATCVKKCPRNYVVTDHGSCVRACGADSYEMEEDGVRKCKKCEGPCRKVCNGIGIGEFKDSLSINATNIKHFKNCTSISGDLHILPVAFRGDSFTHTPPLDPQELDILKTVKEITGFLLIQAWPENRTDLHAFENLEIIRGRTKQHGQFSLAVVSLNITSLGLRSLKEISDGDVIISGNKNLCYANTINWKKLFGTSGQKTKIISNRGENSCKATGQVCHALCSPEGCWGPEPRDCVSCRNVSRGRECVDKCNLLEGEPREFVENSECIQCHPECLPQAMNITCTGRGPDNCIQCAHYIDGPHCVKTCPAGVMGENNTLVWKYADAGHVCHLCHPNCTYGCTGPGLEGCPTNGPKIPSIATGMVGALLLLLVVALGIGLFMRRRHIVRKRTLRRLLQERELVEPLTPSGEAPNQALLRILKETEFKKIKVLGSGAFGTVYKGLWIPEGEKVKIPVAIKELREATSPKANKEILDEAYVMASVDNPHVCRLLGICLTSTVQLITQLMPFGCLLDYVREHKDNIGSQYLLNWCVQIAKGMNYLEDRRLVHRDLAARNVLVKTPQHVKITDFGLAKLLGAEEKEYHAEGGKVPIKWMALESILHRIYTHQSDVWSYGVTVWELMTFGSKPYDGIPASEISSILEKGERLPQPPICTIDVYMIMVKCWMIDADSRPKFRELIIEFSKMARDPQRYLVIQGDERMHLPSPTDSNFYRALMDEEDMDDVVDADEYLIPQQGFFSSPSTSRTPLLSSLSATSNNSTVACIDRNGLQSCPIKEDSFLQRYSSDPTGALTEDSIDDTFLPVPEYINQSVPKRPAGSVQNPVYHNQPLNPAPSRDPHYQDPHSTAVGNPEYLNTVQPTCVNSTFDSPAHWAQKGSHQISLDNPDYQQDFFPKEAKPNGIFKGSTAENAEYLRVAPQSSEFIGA
Tyrosine-protein kinase JAK2 (Homo sapiens), sequence (O60674 whole entry, the tested form may be a part): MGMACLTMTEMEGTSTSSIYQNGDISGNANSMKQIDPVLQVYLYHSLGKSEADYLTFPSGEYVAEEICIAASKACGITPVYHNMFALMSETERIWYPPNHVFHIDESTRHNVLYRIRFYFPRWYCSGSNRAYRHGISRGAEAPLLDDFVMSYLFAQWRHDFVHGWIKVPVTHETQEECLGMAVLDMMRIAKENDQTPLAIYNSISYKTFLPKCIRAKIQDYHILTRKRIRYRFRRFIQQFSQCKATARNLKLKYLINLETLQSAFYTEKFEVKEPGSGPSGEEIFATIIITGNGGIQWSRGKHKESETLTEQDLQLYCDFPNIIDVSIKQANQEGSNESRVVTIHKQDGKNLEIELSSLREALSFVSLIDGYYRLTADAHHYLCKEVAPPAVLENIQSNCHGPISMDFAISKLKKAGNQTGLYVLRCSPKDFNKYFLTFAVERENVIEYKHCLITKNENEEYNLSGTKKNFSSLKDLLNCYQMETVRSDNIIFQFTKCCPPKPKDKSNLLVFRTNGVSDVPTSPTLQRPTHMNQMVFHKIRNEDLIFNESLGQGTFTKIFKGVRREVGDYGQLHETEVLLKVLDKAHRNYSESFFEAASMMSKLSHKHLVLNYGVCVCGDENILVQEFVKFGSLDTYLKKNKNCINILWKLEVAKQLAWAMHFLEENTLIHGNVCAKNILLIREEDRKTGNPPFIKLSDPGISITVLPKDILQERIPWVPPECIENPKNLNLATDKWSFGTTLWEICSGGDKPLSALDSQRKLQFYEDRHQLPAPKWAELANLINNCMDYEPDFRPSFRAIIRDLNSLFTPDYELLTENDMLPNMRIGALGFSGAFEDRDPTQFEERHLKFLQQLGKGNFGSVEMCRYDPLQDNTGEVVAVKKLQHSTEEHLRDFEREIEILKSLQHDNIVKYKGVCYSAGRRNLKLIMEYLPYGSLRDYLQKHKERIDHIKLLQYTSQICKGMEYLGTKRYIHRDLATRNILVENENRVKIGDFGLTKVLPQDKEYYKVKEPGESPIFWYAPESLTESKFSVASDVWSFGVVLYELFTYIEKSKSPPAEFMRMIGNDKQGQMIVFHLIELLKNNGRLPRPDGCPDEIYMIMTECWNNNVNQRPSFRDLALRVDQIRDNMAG
Inhibitor of nuclear factor kappa-B kinase subunit epsilon (Homo sapiens), sequence (Q14164 whole entry): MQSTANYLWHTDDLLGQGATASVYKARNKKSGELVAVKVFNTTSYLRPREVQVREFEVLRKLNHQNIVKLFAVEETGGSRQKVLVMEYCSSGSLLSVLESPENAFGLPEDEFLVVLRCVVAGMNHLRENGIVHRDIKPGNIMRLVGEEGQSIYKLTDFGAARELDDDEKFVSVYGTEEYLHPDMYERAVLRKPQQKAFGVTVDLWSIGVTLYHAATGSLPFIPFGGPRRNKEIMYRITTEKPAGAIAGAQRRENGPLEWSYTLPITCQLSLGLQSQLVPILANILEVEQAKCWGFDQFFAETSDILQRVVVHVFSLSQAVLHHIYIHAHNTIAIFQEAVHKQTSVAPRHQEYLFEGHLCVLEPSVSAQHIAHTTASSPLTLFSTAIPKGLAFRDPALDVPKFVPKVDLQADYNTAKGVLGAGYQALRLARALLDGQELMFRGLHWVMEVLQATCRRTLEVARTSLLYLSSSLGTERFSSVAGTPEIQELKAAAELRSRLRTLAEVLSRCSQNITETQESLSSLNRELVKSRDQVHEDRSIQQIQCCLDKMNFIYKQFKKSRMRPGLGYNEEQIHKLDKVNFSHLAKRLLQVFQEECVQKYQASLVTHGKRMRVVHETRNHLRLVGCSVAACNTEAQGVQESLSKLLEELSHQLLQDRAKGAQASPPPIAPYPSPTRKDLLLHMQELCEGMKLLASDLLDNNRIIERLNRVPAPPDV
Rhodopsin kinase GRK1 (Homo sapiens), sequence (Q15835 whole entry): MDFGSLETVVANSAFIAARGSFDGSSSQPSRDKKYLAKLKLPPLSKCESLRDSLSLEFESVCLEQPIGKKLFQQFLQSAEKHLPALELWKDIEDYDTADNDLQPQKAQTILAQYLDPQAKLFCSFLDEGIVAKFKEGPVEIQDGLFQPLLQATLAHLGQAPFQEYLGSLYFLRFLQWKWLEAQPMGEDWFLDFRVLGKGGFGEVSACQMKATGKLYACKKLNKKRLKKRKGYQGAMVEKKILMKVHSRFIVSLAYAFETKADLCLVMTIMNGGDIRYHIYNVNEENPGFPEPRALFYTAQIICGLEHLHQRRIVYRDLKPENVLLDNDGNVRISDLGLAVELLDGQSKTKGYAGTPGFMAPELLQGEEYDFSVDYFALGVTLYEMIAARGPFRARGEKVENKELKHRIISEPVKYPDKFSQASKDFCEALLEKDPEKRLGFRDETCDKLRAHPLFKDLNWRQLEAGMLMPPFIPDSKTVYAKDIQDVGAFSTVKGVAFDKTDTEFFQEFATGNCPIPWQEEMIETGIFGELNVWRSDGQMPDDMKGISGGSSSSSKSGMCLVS
5'-AMP-activated protein kinase catalytic subunit alpha-2 (Homo sapiens), sequence (P54646 whole entry, looked up): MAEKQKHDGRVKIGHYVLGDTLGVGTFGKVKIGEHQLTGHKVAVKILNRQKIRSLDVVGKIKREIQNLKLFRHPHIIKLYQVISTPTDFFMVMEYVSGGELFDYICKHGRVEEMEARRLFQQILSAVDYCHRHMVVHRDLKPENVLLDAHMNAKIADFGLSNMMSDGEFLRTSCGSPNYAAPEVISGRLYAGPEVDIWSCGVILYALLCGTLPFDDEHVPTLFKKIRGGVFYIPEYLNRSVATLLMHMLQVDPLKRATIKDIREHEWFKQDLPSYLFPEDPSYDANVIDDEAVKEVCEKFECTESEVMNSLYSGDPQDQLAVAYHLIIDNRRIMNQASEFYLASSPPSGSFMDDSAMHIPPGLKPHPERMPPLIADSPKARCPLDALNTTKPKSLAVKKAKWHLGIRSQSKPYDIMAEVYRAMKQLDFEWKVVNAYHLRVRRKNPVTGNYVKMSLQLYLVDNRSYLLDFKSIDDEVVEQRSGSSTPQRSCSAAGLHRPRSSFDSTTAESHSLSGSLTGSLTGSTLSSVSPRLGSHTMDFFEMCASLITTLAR
Peripheral plasma membrane protein CASK (Homo sapiens), sequence (O14936 whole entry, the tested form may be a part): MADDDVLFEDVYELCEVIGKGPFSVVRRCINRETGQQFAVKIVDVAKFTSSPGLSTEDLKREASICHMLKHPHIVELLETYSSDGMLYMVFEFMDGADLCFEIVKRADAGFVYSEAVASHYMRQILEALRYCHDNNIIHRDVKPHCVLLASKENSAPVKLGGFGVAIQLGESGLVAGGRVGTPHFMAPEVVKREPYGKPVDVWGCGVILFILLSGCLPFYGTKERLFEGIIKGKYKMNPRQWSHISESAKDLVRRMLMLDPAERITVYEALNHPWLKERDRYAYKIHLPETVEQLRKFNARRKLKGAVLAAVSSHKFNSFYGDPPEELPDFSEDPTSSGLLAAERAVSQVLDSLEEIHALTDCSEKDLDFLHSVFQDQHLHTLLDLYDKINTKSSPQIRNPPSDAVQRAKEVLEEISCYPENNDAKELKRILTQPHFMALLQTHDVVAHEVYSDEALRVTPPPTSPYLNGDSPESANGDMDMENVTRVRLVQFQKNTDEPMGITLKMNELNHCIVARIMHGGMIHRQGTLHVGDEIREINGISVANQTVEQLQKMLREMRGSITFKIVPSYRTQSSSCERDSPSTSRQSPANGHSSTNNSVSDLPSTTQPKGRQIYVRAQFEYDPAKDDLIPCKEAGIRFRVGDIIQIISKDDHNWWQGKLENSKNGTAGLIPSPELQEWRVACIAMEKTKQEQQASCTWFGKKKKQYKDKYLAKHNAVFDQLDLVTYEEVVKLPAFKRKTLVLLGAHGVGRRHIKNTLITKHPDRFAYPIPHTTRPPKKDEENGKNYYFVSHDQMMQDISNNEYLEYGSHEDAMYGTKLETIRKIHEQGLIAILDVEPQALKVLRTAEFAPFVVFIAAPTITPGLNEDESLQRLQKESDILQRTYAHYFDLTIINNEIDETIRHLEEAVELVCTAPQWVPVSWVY

Work on `CN1C(=O)/C(=C2/C(=O)Nc3ccccc32)c2ccccc21` yielded an Activity [1] of 100%, an Activity [2] of 100% and an Activity [3] of 96%. The Activity (HEL) was “Active”, the Activity [4] was 73% and the Activity [5] was 94%. The Activity (OCI-AML-3) was “Active”, the Activity (MV4-11) was “Active” and the Activity [6] was 92%. It also gave an Activity [7] of 81%, an Activity [8] of 100% and an Activity [9] of 100%. The Activity [10] was 98%, the Activity [11] was 72% and the Activity [12] was 100%. The Activity [13] was 66%, the Activity [14] was 74% and the Activity [15] was 100%. For the same molecule, the Activity [16] was 100%, the Activity [17] was 100% and the Activity [18] was 74%. It also gave an Activity [19] of 83%, an Activity [20] of 100% and an Activity [21] of 92%. For the same molecule, the Activity [22] was 80%, the Activity [23] was 88% and the Activity [24] was 87%. For the same molecule, the Activity [25] was 86%, the Activity [26] was 100% and the Activity [27] was 88%.
